Key:
NSCs = test: Neurosphere self-renewal assay of the NSCs; assay type: cell-based, mice; details: 0.1, 1, 10 μM for 16 hours vs control group, especially 1 μM
Description: To determine whether the HIF-1α-Bmi-1 pathway regulates the proliferation of the NSCs a neurosphere self-renewal assay is performed in this example. In the neurosphere self-renewal assay, the NSCs are cultured in non-adherent cultures to form neurospheres for examining the effect of the HIF-1α-Bmi-1 pathway on the self-renewal of the neurosphere.
To prepare the NSCs, after removal of meninges, subventricular zones (SVZ) of lateral ventricles from adult mice brain (4 week-of-age) are aseptically isolated and dissociated as previously described (J Cell Sci 2006; 119, 4467-4474). All steps are operated under sterile conditions. Then, neurosphere culture are prepared in neurobasal (NB) medium (Gibco BRL) supplemented with 2% of B27 (Gibco BRL), 2 mM of L-glutamine (PAN Biotech), 100 U/ml of penicillin/0.1 mg/L of streptomycin (Gibco BRL). For maintenance and expansion of the cultures, the NB/B27 is further supplemented with 2 μg/mL of heparin (Sigma), 20 ng/mL of FGF-2 (R&D Systems) and 20 ng/mL of EGF (R&D Systems). Neurosphere cultures are maintained at 37° C. in a humidified incubator with 5% CO2. For clonal/low density cultures, primary neurospheres grown at high density are dissociated into a single cell suspension and reseeded into 96-well plates at 100 cells per ml of media and the number of newly formed neurospheres is counted after 7 days. In addition, the Bmi-1 expressions, SOX2 expressions, Nestin expressions, Musashi-1 expressions, BrdU expressions and ki-67 expressions of the newly formed neurospheres are determined by the immunofluorescence staining.
In another example, the NSCs are treated with different dosages of the Compound 1 (0.1 μM, 1 μM and 10 μM) for 16 hours, wherein the NSCs treated with 1 μM of the Compound 1 are further transduced with the LV-Bmi-1-sh or LV-HIF-1α-sh respectively. Then the NSCs are cultured in the neurosphere culture to observe the frequency of the neurosphere formation, the self-renewal potential of the NSCs and the neurosphere size. […]

Bmi-1 [1] = test: Bmi-1 expressions of the NSCs in the SVZ and the DG of the ischemic rats, immunofluorescence staining; assay type: in vivo, Sprague-Dawley (SD) rats
[2] = tested on: NSC in the brain of the ischemic rats; test: Proliferation marker expressions (BrdU, ki-67) in the SVZ and DG of the ischemic rats; assay type: in vivo, Sprague-Dawley (SD) rats
From the text: (§1) The ischemic rats are induced by an ischemia-reperfusion model to simulate transient focal cerebral ischemia in rats. Test animals are male Sprague-Dawley (SD) rats weighing 250-300 g. The rats are anesthetized with chloral hydrate (0.4 g/kg IP) and subjected to cerebral ischemia. The ischemia-reperfusion model is induced by ligations of bilateral common carotid arteries (CCAs) and a right middle cerebral artery (MCA). The bilateral CCAs are clamped with non-traumatic arterial clips, and the right MCA is ligated with an 10-0 nylon suture. After 90 minutes ischemia, the suture on the MCA and the arterial clips on CCAs are removed to allow reperfusion. Core body temperature is monitored with a thermistor probe (Hewlett-Packard Model 21090A probe, Hewlett-Packard Company, Andover, Mass.), and maintained at 37° C. with a heating pad during anesthesia. After recovery from anesthesia, rat body temperature is maintained at 37° C. with a heat lamp.
The ischemic rats treated with different dosages of the Compound 1 (0.1 mg/kg, 1 mg/kg and 10 mg/kg) and the ischemic rats reduced the Bmi-1 expressions or the HIF-1α expressions and then treated with 1 mg/kg of the Compound 1 are decapitated, and the brain tissues thereof are performed the immunofluorescence staining to detect the proliferation marker expressions (BrdU and ki-67) in the brains of the ischemic rats.

ischemic rats [3] = test: Volume of the infarction after cerebral ischemia, TTC staining; assay type: in vivo, Sprague-Dawley (SD) rats; details: 0.1, 1, 10 mg/kg intraperitoneal, 2 days after treatment, vs control, in particular 1 mg/kg, FIGS. 17A, 17B
From the text: as §1
In addition, the ischemic rats are intraperitoneal injected with different dosages of the Compound 1 (0.1 mg/kg, 1 mg/kg and 10 mg/kg). The ischemic rats intraperitoneal injected with vehicle are used as the control. At 2 days after the Compound 1 treatment, the ischemic rats are intracardially perfused with PBS. The brain tissues are removed, immersed in cold PBS, and sliced into 2-mm-thick sections. […]

ischemic rats [4] = test: Grip strength test; assay type: in vivo, Sprague-Dawley (SD) rats; details: 1 mg/kg, vs control group, FIG. 20
From the text: as §1, with “After recovery from anesthesia, rat body temperature is maintained at 37° C. with a heat lamp.” left out
The grip strength is analyzed using Grip Strength Meter (TSE-Systems). In brief, the grip strength of each forelimb of the ischemic rat is measured separately from the mean of 20 pulls, and the ratio of ipsilateral grip strength to contralateral grip strength is calculated. In addition, the ratio of grip strength post-cell-treatment and pre-cell-treatment is also calculated, and the changes are presented as a percentage of the pre-cell-treatment value.

Bmi-1 [5] = test: Bmi-1 expressions of the brains of 2-ME2 treated ischemic rats, immunohistochemistry and Western blot; assay type: in vivo, Sprague-Dawley (SD) rats; details: 2-ME2 50, 100 or 150 mg/kg intraperitoneal, dose-dependent manner, FIGS. 5B, 5C
From the text: as §1
2-ME2 (Sigma Aldrich, USA) is dissolved in DMSO to obtain a 10 mmol/L solution. For in vivo experiments, the whole procedure is performed as previously described (Clin Cancer Res 2004, 10: 8665-8673). […]

[6] = 2-ME2 treatment plus 1 mg/kg Compound 1

Row | SMILES | frequency of the neurosphere formation (NSCs; FIG. 11F) | self-renewal potential of the NSCs (NSCs; FIG. 11G) | neurosphere size (NSCs; FIG. 11H) | number of Bmi-1+Nestin+ NSCs in the SVZ and the DG (Bmi-1 [1]; 0.1, 1, 10 mg/kg vs control, in particular 1 mg/kg, FIGS. 14A to 14D) | numbers of BrdU+ cells in the SVZ and the DG of the brains of the ischemic rats ([2]; 0.1, 1, 10 mg/kg vs control, in particular 1 mg/kg, FIGS. 15A to 15D) | numbers of ki-67+ cells in the SVZ and the DG of the brains of the ischemic rats ([2]; 0.1, 1, 10 mg/kg vs control, in particular 1 mg/kg, FIGS. 15E to 15H) | volume of the infarction (TTC staining) (ischemic rats [3]) | grip strength ratio (ischemic rats [4]) | Compound-1-induced enhancement of Bmi-1+Nestin+ NSCs numbers (Bmi-1 [1]; 100 mg/kg 2-ME2 intraperitoneal plus 1 mg/kg Compound 1) | Compound 1 increased numbers of the BrdU+ cells in the SVZ and the DG [2, 6] | Compound 1 increased numbers of the ki-67+ cells in the SVZ and the DG [2, 6] | upregulated Bmi-1 immunoreactivity and protein expressions after the cerebral ischemia (Bmi-1 [5])
1 | COC(=O)C1=CO[C@@H](O)[C@@H]2C(COC(=O)[C@@H](N)Cc3ccccc3)=CC[C@H]12 [Compound 1] | significantly higher frequency of the neurosphere formation | more self-renewal potential | larger neurosphere size | significantly increases | significant enhancement | significant enhancement | much smaller | much better |  |  |  | 
2 | COc1cc2c(cc1O)CC[C@@H]1[C@@H]2CC[C@]2(C)[C@@H](O)CC[C@@H]12 [Compound 2-ME2, 2-Methoxyestradiol, reference compound] |  |  |  |  |  |  |  |  | inhibits | abolishes | abolishes | suppressed

From patent US10035791B2, “Bicyclic compound and pharmaceutical composition thereof for treating stroke and use thereof” (China Medical University, priority 2016, dated 2018)
